Numbered stars: 1 amine (or outer) side, 2 acyl side, 3 side chain; on linkers, the order of the positions; unused ones are H or OH. Square brackets hold non-standard residues; d marks the D form. Peptide text beside a SMILES is read from it. * marks the point of attachment. X13 = CCCCCCCCCC(=O)Nc1ccc2c(c1)CN([*:1])[C@H](C(=O)[*:2])C2; Phenylacetic(2-CH2NH2) = O=C(Cc1ccccc1CN[*:1])[*:2]; 2(aminomethyl)benzoyl = O=C(c1ccccc1CN[*:1])[*:2]; X6 = CCCCCCCCCC(=O)NCCCNC(=O)c1ccc(C(=O)*)c(CN)c1; X2 = O=C([C@@H]1Cc2ccccc2N1[*:1])[*:2]; X9 = NCCS(=O)(=O)c1ccc(C(=O)*)c(CN)c1; Tiq1c(1S) = O=C(O)[C@H]1NCCc2ccccc21; X11 = NCCCNC(=O)c1ccc(C(=O)*)c(CN)c1; Tic = O=C(O)[C@@H]1Cc2ccccc2CN1; dTic = O=C(O)[C@H]1Cc2ccccc2CN1; X12 = Cc1cc(N)cc(C(=O)*)c1CN; X5 = Cc1cc(CN)cc(CN)c1C(=O)*; Decanoyl = CCCCCCCCCC(=O)*; X1 = O=C(O)Cc1ccccc1C(=O)*; X4 = NCc1ncccc1C(=O)*; X7 = NCc1cccnc1C(=O)*

One series is described as follows: Determination of half life in PBS: cleavage of promoieties from capped model peptides. The class given is physicochemical. To be noted: PBS (phosphate-buffered saline), pH 4; read-out: t 1/2 (h), cleavage of promoiety linked to N terminus of model peptide X-[…] (converted). As to the method: Determination Of half Life in PBS
Polypeptides GIVEQAA-NH2 (SEQ ID NO: 57) and […] (SEQ ID NO: 58), two mimics of the N-terminus section of insulin A chain, were used as model peptides to determine the half lives of various promoieties linked to the N-terminus of the peptides through an amide bond. The model peptides were prepared with Fmoc chemistry, cleaved by TFA and purified by preparative RP-HPLC.
The promoiety capped model peptide was dissolved at 1 mg/mL concentration in PBS and the solution was incubated at 37° C. in a water bath. Samples were collected for analysis at different time points (e.g., 8 h, 16 h, 24 h, 48 h, 72 h, 96 h, 120 h). […] The promoiety cleavage was quenched by lowering pH to 2 by addition of 0.1% TFA solution. RP-HPLC was used to monitor the cleavage reactions and the cleavage rates were quantitatively studied by measuring the peak areas of the promoiety capped and released model peptides. Agilent 6110 Quadrupole LC-MS was employed to verify the change of mass in the course of reaction.
The RP-HPLC analysis was performed using a Shimadzu LC-2010A HT system and a 150 mm×4.6 mm Zorbax 300SB-C18 column. The flow rate was 1 ml/min. Solvent A contained 0.1% TFA/5% CH3CN in deionized water, and solvent B contained 0.1% TFA in 100% CH3CN. A linear gradient was employed (e.g., 10-70% B in 10 minutes).
The rate of cleavage was determined for the respective promoiety capped model peptides. The concentrations of the promoiety capped model peptides and the released model peptides were determined by their respective peak areas. The first order dissociation rate constant of a promoiety capped model peptide was determined by plotting the logarithm of [starting promoiety capped model peptide]/[remaining promoiety capped model peptide] at various time intervals. The half life for cleavage of a promoiety capped model peptide was calculated by using the equation and the slope derived from this plot.
The cleavage half lives of various promoieties linked to the model peptides were determined using the procedures described above.
Consider `CC[C@H](C)[C@H](NC(=O)CNC(=O)c1ccccc1CC(=O)O)C(=O)N[C@H](C(=O)N[C@@H](CCC(=O)O)C(=O)N[C@@H](CCC(N)=O)C(=O)N[C@@H](C)C(=O)N[C@@H](C)C(=O)N[C@@H](Cc1ccc(O)cc1)C(=O)O)C(C)C` [drawing 171] (X1-GIVEQAAY-OH; C-terminus assumed), for which the half-life at 1 mg/mL was 6.2 h.

The same series, now with this note: PBS, 37° C., 1 mg/mL, RP-HPLC.
Turning to “SEQ ID NO: 60 (GIVEQAAY; N-term may be promoiety modified)”, the “t 1/2 (h), cleavage of promoiety linked to N terminus of model peptide X-GIVEQAAY” value came to 72.6 h.

Staying with this series, now noted: PBS, 37° C., 1 mg/mL, RP-HPLC; read-out: t 1/2 (h), cleavage of promoiety linked to N terminus of model peptide X-GIVEQAA (converted).
Turning to `CC[C@H](C)[C@H](NC(=O)CNC(=O)c1ccc(S(=O)(=O)CCN)cc1CN)C(=O)N[C@H](C(=O)N[C@@H](CCC(=O)O)C(=O)N[C@@H](CCC(N)=O)C(=O)N[C@@H](C)C(=O)N[C@@H](C)C(=O)O)C(C)C` (X9-GIVEQAA-OH), the half-life at 1 mg/mL was 28.1 h.
In the case of `CC[C@H](C)[C@H](NC(=O)CNC(=O)c1c(C)cc(CN)cc1CN)C(=O)N[C@H](C(=O)N[C@@H](CCC(=O)O)C(=O)N[C@@H](CCC(N)=O)C(=O)N[C@@H](C)C(=O)N[C@@H](C)C(=O)O)C(C)C` (X5-GIVEQAA-OH; N-terminus and C-terminus assumed), the half-life at 1 mg/mL is 300 h.
The same measure, in the same setting: next, `CCCCCCCCCC(=O)Nc1ccc2c(c1)CN(C(=O)[C@H](C)N)[C@H](C(=O)NCC(=O)N[C@H](C(=O)N[C@H](C(=O)N[C@@H](CCC(=O)O)C(=O)N[C@@H](CCC(N)=O)C(=O)N[C@@H](C)C(=O)N[C@@H](C)C(=O)O)C(C)C)[C@@H](C)CC)C2` (H-A[X13]GIVEQAA-OH): 38.9 h; `CC[C@H](C)[C@H](NC(=O)CNC(=O)c1cc(N)cc(C)c1CN)C(=O)N[C@H](C(=O)N[C@@H](CCC(=O)O)C(=O)N[C@@H](CCC(N)=O)C(=O)N[C@@H](C)C(=O)N[C@@H](C)C(=O)O)C(C)C` (X12-GIVEQAA-OH; N-terminus and C-terminus assumed): 85 h.

Staying with this series, now noted: PBS, 37° C., 1 mg/mL, RP-HPLC; read-out: t 1/2 (h), cleavage of promoiety linked to N terminus of model peptide X-[…] (converted).
Consider `CC[C@H](C)[C@H](NC(=O)CNC(=O)c1ccccc1CN)C(=O)N[C@H](C(=O)N[C@@H](CCC(=O)O)C(=O)N[C@@H](CCC(N)=O)C(=O)N[C@@H](C)C(=O)N[C@@H](C)C(=O)N[C@@H](Cc1ccc(O)cc1)C(=O)O)C(C)C` ({2(aminomethyl)benzoyl}-GIVEQAAY-OH; C-terminus assumed), for which the half-life at 1 mg/mL was 1030 h.
`N[C@@H](CO)c1nncn1[C@@H](CCCCNC(=O)OCC1c2ccccc2-c2ccccc21)C(=O)O`: the half-life at 1 mg/mL was 193 h.
Still for that read-out and setting: next, `CC[C@H](C)[C@H](NC(=O)CNC(=O)Cc1ccccc1CN)C(=O)N[C@H](C(=O)N[C@@H](CCC(=O)O)C(=O)N[C@@H](CCC(N)=O)C(=O)N[C@@H](C)C(=O)N[C@@H](C)C(=O)N[C@@H](Cc1ccc(O)cc1)C(=O)O)C(C)C` ({Phenylacetic(2-CH2NH2)}-GIVEQAAY-OH; C-terminus assumed): 482 h; `CCCCCCCCCC(=O)NCCCC[C@H](N)C(=O)N1CCc2ccccc2[C@H]1C(=O)NCC(=O)N[C@H](C(=O)N[C@H](C(=O)N[C@@H](CCC(=O)O)C(=O)N[C@@H](CCC(N)=O)C(=O)N[C@@H](C)C(=O)N[C@@H](C)C(=O)N[C@@H](Cc1ccc(O)cc1)C(=O)O)C(C)C)[C@@H](C)CC` (H-K(Decanoyl)[Tiq1c(1S)]GIVEQAAY-OH): 262 h; `CCCCCCCCCC(=O)NCCCC[C@H](N)C(=O)N1c2ccccc2C[C@H]1C(=O)NCC(=O)N[C@H](C(=O)N[C@H](C(=O)N[C@@H](CCC(=O)O)C(=O)N[C@@H](CCC(N)=O)C(=O)N[C@@H](C)C(=O)N[C@@H](C)C(=O)N[C@@H](Cc1ccc(O)cc1)C(=O)O)C(C)C)[C@@H](C)CC` [NH2-K(C10)-Indo2CA] (H-K(Decanoyl)[X2]GIVEQAAY-OH; C-terminus assumed): 6 h.
Same read-out and setting: next, `CCCCCCCCCC(=O)NCCCNC(=O)c1ccc(C(=O)NCC(=O)N[C@H](C(=O)N[C@H](C(=O)N[C@@H](CCC(=O)O)C(=O)N[C@@H](CCC(N)=O)C(=O)N[C@@H](C)C(=O)N[C@@H](C)C(=O)N[C@@H](Cc2ccc(O)cc2)C(=O)O)C(C)C)[C@@H](C)CC)c(CN)c1` (X6-GIVEQAAY-OH): 181 h; `CC[C@H](C)[C@H](NC(=O)CNC(=O)[C@@H]1Cc2ccccc2CN1C(=O)[C@H](C)N)C(=O)N[C@H](C(=O)N[C@@H](CCC(=O)O)C(=O)N[C@@H](CCC(N)=O)C(=O)N[C@@H](C)C(=O)N[C@@H](C)C(=O)N[C@@H](Cc1ccc(O)cc1)C(=O)O)C(C)C` [NH2-Ala-Tic] (H-A[Tic]GIVEQAAY-OH; C-terminus assumed): 58.9 h; `CCCCCCCCCC(=O)NCCCC[C@H](N)C(=O)N1Cc2ccccc2C[C@H]1C(=O)NCC(=O)N[C@H](C(=O)N[C@H](C(=O)N[C@@H](CCC(=O)O)C(=O)N[C@@H](CCC(N)=O)C(=O)N[C@@H](C)C(=O)N[C@@H](C)C(=O)N[C@@H](Cc1ccc(O)cc1)C(=O)O)C(C)C)[C@@H](C)CC` [NH2-K(C10)-Tic] (H-K(Decanoyl)[Tic]GIVEQAAY-OH; C-terminus assumed): 46.9 h.
Regarding `CC[C@H](C)[C@H](NC(=O)CNC(=O)c1cccnc1CN)C(=O)N[C@H](C(=O)N[C@@H](CCC(=O)O)C(=O)N[C@@H](CCC(N)=O)C(=O)N[C@@H](C)C(=O)N[C@@H](C)C(=O)N[C@@H](Cc1ccc(O)cc1)C(=O)O)C(C)C` (X4-GIVEQAAY-OH; C-terminus assumed), the half-life at 1 mg/mL is 458 h.
On to `CC[C@H](C)[C@H](NC(=O)CNC(=O)c1ncccc1CN)C(=O)N[C@H](C(=O)N[C@@H](CCC(=O)O)C(=O)N[C@@H](CCC(N)=O)C(=O)N[C@@H](C)C(=O)N[C@@H](C)C(=O)N[C@@H](Cc1ccc(O)cc1)C(=O)O)C(C)C` (X7-GIVEQAAY-OH; C-terminus assumed), for which the half-life at 1 mg/mL is 597 h.
For `CC[C@H](C)[C@H](NC(=O)CNC(=O)[C@@H]1Cc2ccccc2N1C(=O)[C@H](C)N)C(=O)N[C@H](C(=O)N[C@@H](CCC(=O)O)C(=O)N[C@@H](CCC(N)=O)C(=O)N[C@@H](C)C(=O)N[C@@H](C)C(=O)N[C@@H](Cc1ccc(O)cc1)C(=O)O)C(C)C` [NH2-Ala-Indo2CA] (H-A[X2]GIVEQAAY-OH; C-terminus assumed), the half-life at 1 mg/mL was 3.4 h.
On the same count and under the same terms, next, `CCCCCCCCCC(=O)NCCCC[C@@H](N)C(=O)N1Cc2ccccc2C[C@@H]1C(=O)NCC(=O)N[C@H](C(=O)N[C@H](C(=O)N[C@@H](CCC(=O)O)C(=O)N[C@@H](CCC(N)=O)C(=O)N[C@@H](C)C(=O)N[C@@H](C)C(=O)N[C@@H](Cc1ccc(O)cc1)C(=O)O)C(C)C)[C@@H](C)CC` [NH2-dK(C10)-dTic] (H-[dK](Decanoyl)[dTic]GIVEQAAY-OH; C-terminus assumed): 50.6 h.
Still for that read-out and setting: for `CC[C@H](C)[C@H](NC(=O)CNC(=O)[C@@H]1Cc2ccccc2N1C(=O)[C@@H](N)C(C)C)C(=O)N[C@H](C(=O)N[C@@H](CCC(=O)O)C(=O)N[C@@H](CCC(N)=O)C(=O)N[C@@H](C)C(=O)N[C@@H](C)C(=O)N[C@@H](Cc1ccc(O)cc1)C(=O)O)C(C)C` [NH2-Val-Indo2CA] (H-V[X2]GIVEQAAY-OH; C-terminus assumed) the value was 13 h; for `CC[C@H](C)[C@H](NC(=O)CNC(=O)c1ccccc1CC(=O)O)C(=O)N[C@H](C(=O)N[C@@H](CCC(=O)O)C(=O)N[C@@H](CCC(N)=O)C(=O)N[C@@H](C)C(=O)N[C@@H](C)C(=O)N[C@@H](Cc1ccc(O)cc1)C(=O)O)C(C)C` [drawing 173] (X1-GIVEQAAY-OH; C-terminus assumed), 183 h; for `CC[C@H](C)[C@H](NC(=O)CNC(=O)c1ccc(C(=O)NCCCN)cc1CN)C(=O)N[C@H](C(=O)N[C@@H](CCC(=O)O)C(=O)N[C@@H](CCC(N)=O)C(=O)N[C@@H](C)C(=O)N[C@@H](C)C(=O)N[C@@H](Cc1ccc(O)cc1)C(=O)O)C(C)C` (X11-GIVEQAAY-OH), 112 h.
The same measure, in the same setting: next, `N[C@@H](CCCCNC(=O)OCC1c2ccccc2-c2ccccc21)c1nncn1[C@@H](CO)C(=O)O`: 79.7 h.
In the case of `CC[C@H](C)[C@H](NC(=O)CNC(=O)[C@@H]1Cc2ccccc2N1C(=O)[C@@H](N)Cc1ccccc1)C(=O)N[C@H](C(=O)N[C@@H](CCC(=O)O)C(=O)N[C@@H](CCC(N)=O)C(=O)N[C@@H](C)C(=O)N[C@@H](C)C(=O)N[C@@H](Cc1ccc(O)cc1)C(=O)O)C(C)C` [NH2-Phe-Indo2CA] (H-F[X2]GIVEQAAY-OH; C-terminus assumed), the half-life at 1 mg/mL is 9.7 h.

The same series, now with this note: compound drawn; stated after the PBS tables; read-out: Half life for cleavage (converted).
On to `Cc1cc(C(=O)O)cc(CN)c1C(=O)NCCc1ccc(N)cc1`, for which the half-life at 1 mg/mL was 779 h.

(Values after US20200291086A1, “BIOREVERSABLE PROMOIETIES FOR NITROGEN-CONTAINING AND HYDROXYL-CONTAINING DRUGS” (priority 2013, published 2020).)
